The numbers were not newly measured in US20230023289A1, “ANTHRANILAMIDE COMPOSITION” (priority 2019, published 2023), which cites them from elsewhere.

For this series, the target named is insect ryanodine receptors (Drosophila melanogaster, UniProt Q24498). The note with it: in words.
Sequence of insect ryanodine receptors (Q24498 whole entry): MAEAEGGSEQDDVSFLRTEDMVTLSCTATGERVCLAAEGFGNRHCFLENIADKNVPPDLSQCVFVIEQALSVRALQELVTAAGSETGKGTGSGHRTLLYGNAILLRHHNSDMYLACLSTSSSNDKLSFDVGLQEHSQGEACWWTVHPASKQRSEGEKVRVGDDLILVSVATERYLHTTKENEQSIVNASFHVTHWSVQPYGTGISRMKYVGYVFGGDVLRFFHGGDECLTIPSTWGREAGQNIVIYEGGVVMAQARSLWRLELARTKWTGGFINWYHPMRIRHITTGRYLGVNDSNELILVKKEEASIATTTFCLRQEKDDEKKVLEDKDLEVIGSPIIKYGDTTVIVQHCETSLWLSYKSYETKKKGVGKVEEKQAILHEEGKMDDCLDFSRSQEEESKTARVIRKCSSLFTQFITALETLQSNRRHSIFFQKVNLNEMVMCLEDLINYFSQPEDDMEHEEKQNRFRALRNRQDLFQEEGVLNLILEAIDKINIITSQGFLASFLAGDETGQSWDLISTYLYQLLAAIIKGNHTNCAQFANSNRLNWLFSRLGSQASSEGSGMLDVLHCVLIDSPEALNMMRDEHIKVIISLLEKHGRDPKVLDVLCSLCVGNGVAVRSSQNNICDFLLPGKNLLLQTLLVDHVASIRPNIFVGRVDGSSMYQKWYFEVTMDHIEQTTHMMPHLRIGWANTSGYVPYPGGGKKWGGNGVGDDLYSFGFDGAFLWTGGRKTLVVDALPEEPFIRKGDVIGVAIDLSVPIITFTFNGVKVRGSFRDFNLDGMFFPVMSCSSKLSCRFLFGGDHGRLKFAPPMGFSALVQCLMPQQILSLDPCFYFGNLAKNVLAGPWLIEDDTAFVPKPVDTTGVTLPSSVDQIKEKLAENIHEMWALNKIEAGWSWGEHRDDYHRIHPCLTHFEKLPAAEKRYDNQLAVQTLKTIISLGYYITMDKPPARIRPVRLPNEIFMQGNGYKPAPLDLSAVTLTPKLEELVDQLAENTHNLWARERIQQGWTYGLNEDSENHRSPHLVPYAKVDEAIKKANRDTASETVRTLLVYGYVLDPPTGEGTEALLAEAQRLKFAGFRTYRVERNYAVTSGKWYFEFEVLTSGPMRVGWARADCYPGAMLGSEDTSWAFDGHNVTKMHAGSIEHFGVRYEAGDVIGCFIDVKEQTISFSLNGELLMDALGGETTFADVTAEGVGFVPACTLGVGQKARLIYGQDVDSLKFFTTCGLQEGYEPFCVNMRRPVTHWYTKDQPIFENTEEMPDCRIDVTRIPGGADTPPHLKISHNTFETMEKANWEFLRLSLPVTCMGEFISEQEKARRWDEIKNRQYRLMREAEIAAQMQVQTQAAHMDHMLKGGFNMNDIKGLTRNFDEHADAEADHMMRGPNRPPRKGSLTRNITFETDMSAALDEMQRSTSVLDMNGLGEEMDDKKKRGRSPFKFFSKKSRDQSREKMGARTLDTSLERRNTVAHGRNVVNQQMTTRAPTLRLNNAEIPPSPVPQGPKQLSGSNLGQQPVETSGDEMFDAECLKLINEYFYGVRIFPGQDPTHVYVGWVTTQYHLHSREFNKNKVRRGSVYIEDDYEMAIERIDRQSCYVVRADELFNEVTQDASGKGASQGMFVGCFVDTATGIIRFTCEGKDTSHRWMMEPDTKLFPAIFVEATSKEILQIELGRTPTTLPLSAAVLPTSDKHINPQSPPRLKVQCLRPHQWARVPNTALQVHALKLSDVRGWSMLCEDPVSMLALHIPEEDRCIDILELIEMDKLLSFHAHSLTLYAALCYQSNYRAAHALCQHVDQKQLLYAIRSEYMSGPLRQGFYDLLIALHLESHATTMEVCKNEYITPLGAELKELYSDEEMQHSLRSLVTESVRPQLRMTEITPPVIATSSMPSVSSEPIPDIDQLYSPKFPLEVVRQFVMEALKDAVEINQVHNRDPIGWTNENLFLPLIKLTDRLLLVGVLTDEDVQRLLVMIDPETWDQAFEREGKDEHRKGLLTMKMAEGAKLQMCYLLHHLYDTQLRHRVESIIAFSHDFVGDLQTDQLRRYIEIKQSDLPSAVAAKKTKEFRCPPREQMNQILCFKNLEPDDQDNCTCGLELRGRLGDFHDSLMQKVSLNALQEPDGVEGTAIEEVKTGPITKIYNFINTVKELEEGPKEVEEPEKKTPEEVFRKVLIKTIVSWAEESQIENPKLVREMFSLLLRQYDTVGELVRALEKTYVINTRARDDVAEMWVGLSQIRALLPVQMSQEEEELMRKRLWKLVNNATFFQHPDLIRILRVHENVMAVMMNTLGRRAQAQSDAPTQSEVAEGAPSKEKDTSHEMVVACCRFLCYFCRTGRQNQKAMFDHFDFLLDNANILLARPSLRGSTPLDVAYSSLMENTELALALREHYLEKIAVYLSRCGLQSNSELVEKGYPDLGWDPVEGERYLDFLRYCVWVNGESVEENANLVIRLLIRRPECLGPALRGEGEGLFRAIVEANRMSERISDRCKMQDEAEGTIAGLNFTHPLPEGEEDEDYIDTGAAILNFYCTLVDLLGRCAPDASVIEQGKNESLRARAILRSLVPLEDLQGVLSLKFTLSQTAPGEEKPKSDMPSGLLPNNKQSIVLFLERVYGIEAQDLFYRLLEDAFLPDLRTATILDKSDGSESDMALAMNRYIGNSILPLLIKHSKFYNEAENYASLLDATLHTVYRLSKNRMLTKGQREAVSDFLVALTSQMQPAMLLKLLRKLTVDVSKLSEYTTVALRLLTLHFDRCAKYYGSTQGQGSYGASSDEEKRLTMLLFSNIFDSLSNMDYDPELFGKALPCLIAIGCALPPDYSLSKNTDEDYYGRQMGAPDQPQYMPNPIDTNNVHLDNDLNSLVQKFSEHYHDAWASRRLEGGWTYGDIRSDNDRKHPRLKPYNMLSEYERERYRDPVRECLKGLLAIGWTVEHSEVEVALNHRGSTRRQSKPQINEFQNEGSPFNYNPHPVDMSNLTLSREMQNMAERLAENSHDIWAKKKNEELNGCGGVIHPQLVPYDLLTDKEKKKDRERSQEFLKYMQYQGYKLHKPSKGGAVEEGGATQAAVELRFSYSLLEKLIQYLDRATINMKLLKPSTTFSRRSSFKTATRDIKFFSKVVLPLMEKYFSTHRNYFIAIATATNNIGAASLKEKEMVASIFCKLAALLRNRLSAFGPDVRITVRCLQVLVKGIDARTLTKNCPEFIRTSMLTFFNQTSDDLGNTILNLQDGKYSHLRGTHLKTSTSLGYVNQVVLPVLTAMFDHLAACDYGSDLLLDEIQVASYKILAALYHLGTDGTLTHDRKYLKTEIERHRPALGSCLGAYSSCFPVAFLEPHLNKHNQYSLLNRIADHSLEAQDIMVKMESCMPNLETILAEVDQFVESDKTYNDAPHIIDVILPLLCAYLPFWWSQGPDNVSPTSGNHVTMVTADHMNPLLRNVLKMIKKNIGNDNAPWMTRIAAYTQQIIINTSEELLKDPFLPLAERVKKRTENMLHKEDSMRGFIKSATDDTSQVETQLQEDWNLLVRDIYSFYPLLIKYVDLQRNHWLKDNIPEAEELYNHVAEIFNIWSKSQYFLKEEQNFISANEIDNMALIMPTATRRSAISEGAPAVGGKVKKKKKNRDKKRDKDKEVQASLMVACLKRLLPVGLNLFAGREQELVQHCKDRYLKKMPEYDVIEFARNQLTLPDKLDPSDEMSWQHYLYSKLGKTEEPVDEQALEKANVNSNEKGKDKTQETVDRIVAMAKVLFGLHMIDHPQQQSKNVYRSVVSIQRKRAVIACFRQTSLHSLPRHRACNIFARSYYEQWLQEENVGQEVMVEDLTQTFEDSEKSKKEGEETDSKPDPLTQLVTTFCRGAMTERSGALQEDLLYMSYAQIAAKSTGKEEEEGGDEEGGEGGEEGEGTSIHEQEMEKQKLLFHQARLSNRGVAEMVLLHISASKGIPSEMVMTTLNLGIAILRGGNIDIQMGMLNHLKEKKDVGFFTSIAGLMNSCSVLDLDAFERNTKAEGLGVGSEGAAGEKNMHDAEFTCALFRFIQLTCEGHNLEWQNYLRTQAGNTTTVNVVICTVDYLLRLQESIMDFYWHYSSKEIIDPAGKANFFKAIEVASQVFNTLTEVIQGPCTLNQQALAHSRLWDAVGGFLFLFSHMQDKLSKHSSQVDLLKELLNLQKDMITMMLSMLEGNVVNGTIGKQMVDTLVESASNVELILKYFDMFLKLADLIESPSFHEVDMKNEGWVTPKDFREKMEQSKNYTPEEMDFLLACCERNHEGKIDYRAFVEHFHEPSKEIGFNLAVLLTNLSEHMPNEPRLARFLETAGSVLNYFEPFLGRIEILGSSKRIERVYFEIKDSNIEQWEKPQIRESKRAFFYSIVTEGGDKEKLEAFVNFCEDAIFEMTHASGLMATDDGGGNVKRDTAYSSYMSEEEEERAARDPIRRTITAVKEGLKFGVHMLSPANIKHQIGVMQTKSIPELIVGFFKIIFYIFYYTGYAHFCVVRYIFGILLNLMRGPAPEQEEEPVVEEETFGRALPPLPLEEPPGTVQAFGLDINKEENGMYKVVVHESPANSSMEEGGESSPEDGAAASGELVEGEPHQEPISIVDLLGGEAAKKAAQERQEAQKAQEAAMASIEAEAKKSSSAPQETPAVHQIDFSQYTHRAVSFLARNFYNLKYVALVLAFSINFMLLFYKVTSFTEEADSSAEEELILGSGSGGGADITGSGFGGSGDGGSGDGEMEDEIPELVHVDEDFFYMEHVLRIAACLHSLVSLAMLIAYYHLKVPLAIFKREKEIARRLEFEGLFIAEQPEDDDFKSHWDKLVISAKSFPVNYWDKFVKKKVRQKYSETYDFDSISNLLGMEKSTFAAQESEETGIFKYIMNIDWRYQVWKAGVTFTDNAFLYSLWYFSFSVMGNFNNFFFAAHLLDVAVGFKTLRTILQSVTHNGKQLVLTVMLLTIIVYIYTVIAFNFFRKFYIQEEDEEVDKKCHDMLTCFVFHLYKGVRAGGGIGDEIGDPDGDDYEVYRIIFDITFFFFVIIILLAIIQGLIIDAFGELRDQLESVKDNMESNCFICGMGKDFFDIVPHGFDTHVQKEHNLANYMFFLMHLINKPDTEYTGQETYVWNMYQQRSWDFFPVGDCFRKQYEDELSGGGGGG

Take `CNC(=O)c1cc(Cl)cc(C)c1NC(=O)c1cc(Br)nn1-c1ncccc1Cl` [chlorantraniliprole, 5-bromo-N-[4-chloro-2-methyl-6-(methylcarbamoyl)phenyl]-2-(3-chloropyridin-2-yl)pyrazole-3-carboxamide]: the “Selectivity for insect ryanodine receptors over mammalian ryanodine receptors” value was “excellent differential selectivity”.
